Reference: publication PMC3361708 (Cell Metabolism, 2012)

Molecular target: T1, mAdpn (Mus musculus, UniProt Q91WW7)
T1 sequence (Q91WW7 1-413): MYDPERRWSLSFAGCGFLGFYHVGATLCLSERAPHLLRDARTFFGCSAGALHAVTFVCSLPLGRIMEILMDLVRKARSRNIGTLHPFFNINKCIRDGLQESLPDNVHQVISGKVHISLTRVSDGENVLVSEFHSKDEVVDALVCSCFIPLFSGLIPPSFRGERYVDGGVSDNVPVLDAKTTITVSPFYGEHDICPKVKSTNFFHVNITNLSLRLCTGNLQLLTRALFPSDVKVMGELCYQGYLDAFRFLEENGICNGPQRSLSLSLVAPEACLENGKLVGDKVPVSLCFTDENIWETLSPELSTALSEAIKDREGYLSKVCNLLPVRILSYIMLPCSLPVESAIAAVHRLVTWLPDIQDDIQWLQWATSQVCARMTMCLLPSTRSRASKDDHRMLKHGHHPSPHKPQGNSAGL
Experiment: radiometric LPAAT assay, TLC, Michaelis-Menten fit
Type: biochemical
Details: co-substrate LPA; labelled compound [1-14C]

Question: How did the Km turn out when `CCCCCCCC/C=C\CCCCCCCC(=O)SCCNC(=O)CCNC(=O)[C@H](O)C(C)(C)COP(=O)(O)OP(=O)(O)OC[C@H]1O[C@@H](n2cnc3c(N)ncnc32)[C@H](O)[C@@H]1OP(=O)(O)O` [oleoyl-CoA] was run?
Answer: 12.5 µM
